In US12479847B2 (DANA-FARBER CANCER INSTITUTE, INC., priority 2019, dated 2025):

Legend:
Experiment in all cases: KINOMEscan (ScanMAX) kinase profiling
Type in all cases: binding
[1] = molecular target: T1, panel of 468 kinases (Homo sapiens, UniProt P36888, R834Q); settings: FLT3(R834Q); 1 μM; read-out: % control
T1 construct: purchased KINOMEscan (ScanMAX) service
T1 sequence (P36888 27-993 R834Q): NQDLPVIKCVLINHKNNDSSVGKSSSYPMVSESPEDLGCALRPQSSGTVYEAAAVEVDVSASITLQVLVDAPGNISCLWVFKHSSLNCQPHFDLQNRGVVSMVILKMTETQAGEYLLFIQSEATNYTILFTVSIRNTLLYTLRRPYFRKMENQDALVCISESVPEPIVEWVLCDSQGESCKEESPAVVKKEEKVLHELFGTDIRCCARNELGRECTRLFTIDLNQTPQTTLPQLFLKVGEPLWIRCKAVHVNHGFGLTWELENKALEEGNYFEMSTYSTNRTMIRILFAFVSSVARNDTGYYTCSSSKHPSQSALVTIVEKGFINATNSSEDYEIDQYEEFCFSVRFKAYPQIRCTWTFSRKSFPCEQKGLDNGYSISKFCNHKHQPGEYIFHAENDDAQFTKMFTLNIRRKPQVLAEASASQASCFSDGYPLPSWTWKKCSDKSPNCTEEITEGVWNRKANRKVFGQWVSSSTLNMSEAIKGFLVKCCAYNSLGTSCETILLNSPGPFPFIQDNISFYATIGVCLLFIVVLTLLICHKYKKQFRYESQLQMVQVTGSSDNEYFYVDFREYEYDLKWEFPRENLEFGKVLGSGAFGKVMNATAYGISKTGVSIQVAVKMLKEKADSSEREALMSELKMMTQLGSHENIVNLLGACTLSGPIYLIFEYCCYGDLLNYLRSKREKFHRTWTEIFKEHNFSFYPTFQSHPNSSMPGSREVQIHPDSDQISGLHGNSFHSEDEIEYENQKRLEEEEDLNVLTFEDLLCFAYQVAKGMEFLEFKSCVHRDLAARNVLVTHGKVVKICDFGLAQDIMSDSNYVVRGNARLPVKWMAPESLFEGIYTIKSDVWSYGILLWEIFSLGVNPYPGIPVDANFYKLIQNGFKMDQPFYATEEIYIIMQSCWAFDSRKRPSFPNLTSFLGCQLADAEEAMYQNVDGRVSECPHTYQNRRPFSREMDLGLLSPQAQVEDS

[2] = molecular target: T2, panel of 468 kinases (Homo sapiens, UniProt O15530); settings: PDPK1; 1 μM; read-out: % control
T2 construct: purchased KINOMEscan (ScanMAX) service
T2 sequence (O15530 1-556): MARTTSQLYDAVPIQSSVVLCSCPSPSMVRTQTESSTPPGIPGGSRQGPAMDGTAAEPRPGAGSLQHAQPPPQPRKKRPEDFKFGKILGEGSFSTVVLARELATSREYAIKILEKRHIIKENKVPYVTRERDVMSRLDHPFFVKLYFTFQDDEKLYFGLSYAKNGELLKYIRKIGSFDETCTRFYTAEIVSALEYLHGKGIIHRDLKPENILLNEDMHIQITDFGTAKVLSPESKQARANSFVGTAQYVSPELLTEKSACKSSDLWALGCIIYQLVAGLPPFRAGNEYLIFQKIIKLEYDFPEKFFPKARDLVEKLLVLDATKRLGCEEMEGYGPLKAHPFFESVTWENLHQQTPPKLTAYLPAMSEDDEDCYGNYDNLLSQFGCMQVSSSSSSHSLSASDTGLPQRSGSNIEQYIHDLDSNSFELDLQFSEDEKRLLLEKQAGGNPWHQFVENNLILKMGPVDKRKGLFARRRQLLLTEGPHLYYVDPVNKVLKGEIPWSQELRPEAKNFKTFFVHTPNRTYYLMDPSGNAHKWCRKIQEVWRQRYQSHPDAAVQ

[3] = molecular target: T3, panel of 468 kinases (Homo sapiens, UniProt Q2M2I8); settings: AAK1; 1 μM; read-out: % control
T3 construct: purchased KINOMEscan (ScanMAX) service

[4] = molecular target: T4, panel of 468 kinases (Homo sapiens, UniProt Q9NYL2); settings: ZAK; 1 μM; read-out: % control
T4 construct: purchased KINOMEscan (ScanMAX) service

[5] = molecular target: T5, panel of 468 kinases (Homo sapiens, UniProt P16234); settings: PDGFRA; 1 μM; read-out: % control
T5 construct: purchased KINOMEscan (ScanMAX) service

[6] = molecular target: T6, panel of 468 kinases (Homo sapiens, UniProt P21860); settings: ERBB3; 1 μM; read-out: % control
T6 construct: purchased KINOMEscan (ScanMAX) service

[7] = molecular target: T7, panel of 468 kinases (Homo sapiens, UniProt Q9Y463); settings: DYRK1B; 1 μM; read-out: % control
T7 construct: purchased KINOMEscan (ScanMAX) service

[8] = molecular target: T8, panel of 468 kinases (Homo sapiens, UniProt P48736); settings: PIK3CG; 1 μM; read-out: % control
T8 construct: purchased KINOMEscan (ScanMAX) service
T8 sequence (P48736 whole entry): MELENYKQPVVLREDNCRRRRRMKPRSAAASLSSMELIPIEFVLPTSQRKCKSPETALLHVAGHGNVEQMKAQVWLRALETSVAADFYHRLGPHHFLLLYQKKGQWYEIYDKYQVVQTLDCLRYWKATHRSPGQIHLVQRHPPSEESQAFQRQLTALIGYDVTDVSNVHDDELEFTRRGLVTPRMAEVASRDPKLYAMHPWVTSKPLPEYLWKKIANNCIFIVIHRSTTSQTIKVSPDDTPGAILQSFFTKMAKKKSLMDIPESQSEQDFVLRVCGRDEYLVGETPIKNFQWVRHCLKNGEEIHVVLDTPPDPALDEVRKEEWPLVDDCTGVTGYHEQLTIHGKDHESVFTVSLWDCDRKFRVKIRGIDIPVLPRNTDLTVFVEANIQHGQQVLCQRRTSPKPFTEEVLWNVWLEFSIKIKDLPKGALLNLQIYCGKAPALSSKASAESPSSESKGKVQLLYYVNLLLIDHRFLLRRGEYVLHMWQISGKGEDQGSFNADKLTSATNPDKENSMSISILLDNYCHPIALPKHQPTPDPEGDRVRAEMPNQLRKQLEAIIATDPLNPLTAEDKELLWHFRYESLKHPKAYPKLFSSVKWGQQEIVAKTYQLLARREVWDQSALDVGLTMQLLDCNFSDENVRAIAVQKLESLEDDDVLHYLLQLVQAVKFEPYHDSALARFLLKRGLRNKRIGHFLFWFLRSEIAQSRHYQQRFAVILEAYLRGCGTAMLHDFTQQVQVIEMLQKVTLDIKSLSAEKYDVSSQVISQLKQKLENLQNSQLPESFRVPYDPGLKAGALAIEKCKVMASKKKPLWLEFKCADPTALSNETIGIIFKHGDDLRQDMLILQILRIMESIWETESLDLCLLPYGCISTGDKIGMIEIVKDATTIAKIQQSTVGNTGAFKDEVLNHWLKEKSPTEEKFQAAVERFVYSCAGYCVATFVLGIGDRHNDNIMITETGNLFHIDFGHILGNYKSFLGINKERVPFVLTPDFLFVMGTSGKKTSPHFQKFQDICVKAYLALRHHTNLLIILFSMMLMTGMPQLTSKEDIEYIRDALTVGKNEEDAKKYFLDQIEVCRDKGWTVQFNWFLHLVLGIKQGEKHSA

T3 sequence (Q2M2I8 whole entry): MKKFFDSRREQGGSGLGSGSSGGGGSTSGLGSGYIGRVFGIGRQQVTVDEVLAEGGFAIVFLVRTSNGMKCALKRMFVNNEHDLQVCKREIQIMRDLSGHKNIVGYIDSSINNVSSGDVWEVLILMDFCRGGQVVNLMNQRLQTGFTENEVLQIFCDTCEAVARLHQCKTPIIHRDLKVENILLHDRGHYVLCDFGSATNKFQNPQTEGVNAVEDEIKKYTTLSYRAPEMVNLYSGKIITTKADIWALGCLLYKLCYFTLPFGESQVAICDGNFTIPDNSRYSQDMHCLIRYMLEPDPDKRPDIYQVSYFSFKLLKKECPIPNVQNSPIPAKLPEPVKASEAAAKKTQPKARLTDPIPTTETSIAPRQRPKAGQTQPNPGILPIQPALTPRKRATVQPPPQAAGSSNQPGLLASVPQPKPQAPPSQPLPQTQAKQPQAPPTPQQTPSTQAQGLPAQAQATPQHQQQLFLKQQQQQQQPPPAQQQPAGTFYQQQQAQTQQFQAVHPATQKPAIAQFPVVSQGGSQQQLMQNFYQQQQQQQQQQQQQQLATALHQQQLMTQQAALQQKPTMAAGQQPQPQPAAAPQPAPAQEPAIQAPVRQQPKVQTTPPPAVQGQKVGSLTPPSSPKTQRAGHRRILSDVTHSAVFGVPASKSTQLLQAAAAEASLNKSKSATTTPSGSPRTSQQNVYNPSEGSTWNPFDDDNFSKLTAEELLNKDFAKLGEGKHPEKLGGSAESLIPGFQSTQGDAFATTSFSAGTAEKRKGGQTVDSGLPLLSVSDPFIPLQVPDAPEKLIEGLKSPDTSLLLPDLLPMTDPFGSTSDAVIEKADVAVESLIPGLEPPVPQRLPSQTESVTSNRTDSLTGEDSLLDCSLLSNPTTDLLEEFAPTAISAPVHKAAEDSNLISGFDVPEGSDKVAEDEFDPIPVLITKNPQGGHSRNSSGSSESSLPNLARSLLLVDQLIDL
T7 sequence (Q9Y463 whole entry): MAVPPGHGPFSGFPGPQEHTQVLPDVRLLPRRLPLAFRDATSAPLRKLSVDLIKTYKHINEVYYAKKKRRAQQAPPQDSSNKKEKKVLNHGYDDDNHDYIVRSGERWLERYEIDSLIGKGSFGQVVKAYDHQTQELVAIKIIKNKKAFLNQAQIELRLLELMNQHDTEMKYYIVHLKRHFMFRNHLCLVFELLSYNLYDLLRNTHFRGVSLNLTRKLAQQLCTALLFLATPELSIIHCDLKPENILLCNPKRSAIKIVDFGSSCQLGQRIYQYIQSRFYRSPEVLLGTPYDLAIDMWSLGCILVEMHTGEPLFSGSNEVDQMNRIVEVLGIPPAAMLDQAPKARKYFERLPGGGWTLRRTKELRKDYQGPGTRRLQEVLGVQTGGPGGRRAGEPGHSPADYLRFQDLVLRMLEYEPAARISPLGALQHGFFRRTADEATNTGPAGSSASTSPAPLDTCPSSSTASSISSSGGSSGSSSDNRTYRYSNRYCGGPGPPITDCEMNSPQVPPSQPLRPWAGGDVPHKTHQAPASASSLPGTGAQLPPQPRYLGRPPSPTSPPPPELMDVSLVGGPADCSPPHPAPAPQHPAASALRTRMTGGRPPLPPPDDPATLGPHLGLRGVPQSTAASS
T6 sequence (P21860 20-1342): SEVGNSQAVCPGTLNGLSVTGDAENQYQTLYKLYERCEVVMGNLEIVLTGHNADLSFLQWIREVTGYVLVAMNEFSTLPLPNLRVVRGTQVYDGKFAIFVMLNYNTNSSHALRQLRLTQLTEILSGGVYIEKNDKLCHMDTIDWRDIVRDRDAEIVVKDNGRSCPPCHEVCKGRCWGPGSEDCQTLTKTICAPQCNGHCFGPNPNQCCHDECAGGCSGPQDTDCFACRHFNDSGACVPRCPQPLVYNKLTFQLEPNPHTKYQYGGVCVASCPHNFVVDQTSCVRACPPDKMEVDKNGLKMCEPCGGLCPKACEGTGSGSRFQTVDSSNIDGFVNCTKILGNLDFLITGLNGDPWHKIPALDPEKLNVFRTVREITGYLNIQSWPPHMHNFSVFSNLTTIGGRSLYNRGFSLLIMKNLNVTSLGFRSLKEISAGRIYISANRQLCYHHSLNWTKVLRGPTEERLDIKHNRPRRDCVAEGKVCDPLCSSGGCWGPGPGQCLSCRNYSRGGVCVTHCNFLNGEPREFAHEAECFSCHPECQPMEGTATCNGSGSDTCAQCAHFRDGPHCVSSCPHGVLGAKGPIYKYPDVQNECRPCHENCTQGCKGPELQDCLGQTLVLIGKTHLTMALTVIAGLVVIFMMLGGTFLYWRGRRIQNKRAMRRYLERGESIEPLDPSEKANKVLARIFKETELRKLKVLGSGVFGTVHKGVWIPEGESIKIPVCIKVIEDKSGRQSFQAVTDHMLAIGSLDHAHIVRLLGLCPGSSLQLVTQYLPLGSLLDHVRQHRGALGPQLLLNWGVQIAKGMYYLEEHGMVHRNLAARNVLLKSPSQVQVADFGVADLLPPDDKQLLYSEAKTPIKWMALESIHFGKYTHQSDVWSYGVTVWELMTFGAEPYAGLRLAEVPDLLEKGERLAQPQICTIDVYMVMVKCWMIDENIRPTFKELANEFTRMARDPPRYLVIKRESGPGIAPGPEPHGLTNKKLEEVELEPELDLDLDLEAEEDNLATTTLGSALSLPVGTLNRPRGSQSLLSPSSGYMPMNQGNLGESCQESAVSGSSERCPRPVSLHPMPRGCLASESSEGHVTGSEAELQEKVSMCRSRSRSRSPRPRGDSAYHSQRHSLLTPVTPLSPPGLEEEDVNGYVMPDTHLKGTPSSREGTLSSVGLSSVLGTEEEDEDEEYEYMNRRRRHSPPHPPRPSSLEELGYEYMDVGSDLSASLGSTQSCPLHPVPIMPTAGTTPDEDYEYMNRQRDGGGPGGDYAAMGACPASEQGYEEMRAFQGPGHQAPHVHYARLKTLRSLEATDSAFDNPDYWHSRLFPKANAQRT
T5 sequence (P16234 24-1089): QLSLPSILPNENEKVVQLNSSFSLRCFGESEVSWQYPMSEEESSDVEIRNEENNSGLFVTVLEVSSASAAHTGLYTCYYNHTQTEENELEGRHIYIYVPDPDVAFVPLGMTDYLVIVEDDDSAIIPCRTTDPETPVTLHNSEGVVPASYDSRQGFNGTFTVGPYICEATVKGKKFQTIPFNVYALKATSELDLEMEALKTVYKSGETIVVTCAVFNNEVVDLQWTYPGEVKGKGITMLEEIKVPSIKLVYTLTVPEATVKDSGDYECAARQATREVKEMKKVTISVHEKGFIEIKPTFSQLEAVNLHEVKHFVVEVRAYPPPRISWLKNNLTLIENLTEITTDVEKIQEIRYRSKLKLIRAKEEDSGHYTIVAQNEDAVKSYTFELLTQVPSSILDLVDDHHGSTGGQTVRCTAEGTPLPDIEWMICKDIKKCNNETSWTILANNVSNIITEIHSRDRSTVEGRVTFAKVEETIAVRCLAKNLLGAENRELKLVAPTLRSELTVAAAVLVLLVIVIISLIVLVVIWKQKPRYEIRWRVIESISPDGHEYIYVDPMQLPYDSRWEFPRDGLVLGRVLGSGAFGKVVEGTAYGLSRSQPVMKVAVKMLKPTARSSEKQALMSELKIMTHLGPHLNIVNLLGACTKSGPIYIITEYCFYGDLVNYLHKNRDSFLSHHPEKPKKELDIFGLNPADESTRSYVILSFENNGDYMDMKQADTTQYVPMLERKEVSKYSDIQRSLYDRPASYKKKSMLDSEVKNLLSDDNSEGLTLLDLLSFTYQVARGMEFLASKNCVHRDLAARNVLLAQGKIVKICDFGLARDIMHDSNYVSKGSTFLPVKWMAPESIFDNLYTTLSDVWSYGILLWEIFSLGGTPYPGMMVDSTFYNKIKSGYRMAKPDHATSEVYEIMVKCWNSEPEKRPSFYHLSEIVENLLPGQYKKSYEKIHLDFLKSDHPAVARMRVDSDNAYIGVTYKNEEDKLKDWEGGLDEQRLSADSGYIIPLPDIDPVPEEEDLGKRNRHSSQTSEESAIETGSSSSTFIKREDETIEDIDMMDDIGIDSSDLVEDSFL

Row | Compound | remaining binding at 1 µM [1] [%] | remaining binding at 1 µM [2] [%] | remaining binding at 1 µM [3] [%] | remaining binding at 1 µM [4] [%] | remaining binding at 1 µM [5] [%] | remaining binding at 1 µM [6] [%] | remaining binding at 1 µM [7] [%] | remaining binding at 1 µM [8] [%]
1 | CNc1nc(Nc2ccc(C(=O)N3CCC(N4CCOCC4)CC3)c3c2OCO3)nc2[nH]cc(Cl)c12 [Compound 75, (7-((5-chloro-4-(methylamino)-7H-pyrrolo[2,3-d]pyrimidin-2-yl)amino)benzo[d][1,3]dioxol-4-yl)(4-morpholinopiperidin-1-yl)methanone] | 73 | 98 | 13 | 100 | 67 | 38 | 0 | 100
2 | CNc1nc(Nc2ccc(S(=O)(=O)N3CCC(N4CCOCC4)CC3)cc2OC)nc2[nH]cc(Cl)c12 [Compound 12, 5-chloro-N2-(2-methoxy-4-((4-morpholinopiperidin-1-yl)sulfonyl)phenyl)-N4-methyl-7H-pyrrolo[2,3-d]pyrimidine-2,4-diamine] | 92 | 95 | 100 | 100 | 77 | 38 | 6.1 | 95
3 | CNc1nc(Nc2ccc(P3(=O)CCN(C4CCOCC4)CC3)cc2OC)nc2[nH]cc(Cl)c12 [Compound 77, 4-(4-((5-chloro-4-(methylamino)-7H-pyrrolo[2,3-d]pyrimidin-2-yl)amino)-3-methoxyphenyl)-1-(tetrahydro-2H-pyran-4-yl)-1,4-azaphosphinane 4-oxide] | 82 | 100 | 99 | 100 | 69 | 35 | 13 | 100
